# Assay results: patent publication US10292999B2, “Treatment of enteric stress from heat and infection in humans and animals by supplementation with zinc and butyric acid” (Kemin Industries, Inc., priority 2015, dated 2019)
# Tests used:
# IPEC-J2 cells [1] = assay: Trans-epithelial resistance (TER) of IPEC-J2 cells under heat stress; format: cell-based, pig; settings: 300 μM, heat stress 41.5° C.; for trans-epithelial resistance versus un-treated heat stress cells: FIG. 2
# Experimental: FIG. 2 is a chart of the effect of 300 μM concentration of different test compounds on the transepithelial resistance (TER) values of IPEC-J2 cells under heat stress conditions.
# When animals undergo heat stress, the increased temperature leads to damage of the epithelial layer as well as withdrawal of tight junction proteins to the cytoplasm of the epithelial cells, thus compromising the tight junctions. The compromised tight junctions allow for toxins and other inflammatory substances to enter the systemic circulation. […] As reported in FIG. 2, cells were treated with the test compounds and incubated at 41.5° C. (Con-TN) Control-Thermoneutral conditions—37° C. (CON—HS)—Control-Heat Stress conditions—41.5° C. (Zn Sulf) 300 μM Zinc Sulfate under Heat Stress Conditions—41.5° C. (ZBA) 300 μM ZBA under Heat Stress Conditions—41.5° C. (CaBA) 300 μM Calcium and Butyric Acid Salt under Heat Stress Conditions—41.5° C.
# IPEC-J2 cells [2] = settings: 1 mM, normal conditions, vs control, FIG. 1
Compound,trans-epithelial resistance versus un-treated heat stress cells (IPEC-J2 cells [1]),"trans-epithelial resistance (TER), 0 h (IPEC-J2 cells [1])","trans-epithelial resistance (TER), 12 h (IPEC-J2 cells [1])","trans-epithelial resistance (TER), 24 h (IPEC-J2 cells [1])","trans-epithelial resistance (TER), 36 h (IPEC-J2 cells [1])","trans-epithelial resistance (TER), 48 h (IPEC-J2 cells [1])",trans-epithelial resistance (IPEC-J2 cells [2])
O=S(=O)([O-])[O-].[Zn+2] [Zinc Sulfate],do not improve the trans-epithelial resistance,1.00,1.67,1.89,2.19,2.31,–
Calcium and Butyric Acid Salt [Calcium Butyric Acid Salt],do not improve the trans-epithelial resistance,1.00,1.58,1.74,1.96,2.10,–
"CCCC(=O)[O-].CCCC(=O)[O-].[Zn+2] [ZBA, zinc salt of butyric acid in a molar ratio of 1:2]",improves the trans-epithelial resistance to the level of cells grown that are grown at thermoneutral conditions,1.00,2.04,2.24,2.60,2.76,increased trans-epithelial resistance
